Laboratory results from ChEMBL document CHEMBL1201862, “PubChem BioAssay data set” (2004).
Structures can show the parent of a compound that is named as a salt.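 Results reflect a 48-hour exposure of cells in 96-well plates to compound at five concentrations. GI50 = concentration required for 50% inhibition of growth.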 Calls of active or inactive are those of the source. Rule as the data show it: active = GI50 up to about 1.1 µM and inactive = higher.

Experiments:
Test in all cases: NCI tumour cell line growth inhibition, 48 h
A498 = test system: A498
K562 = test system: K562
HOP-62 = test system: HOP-62
NCI-H460 = test system: NCI-H460
KM12 = test system: KM12
SNB-75 = test system: SNB-75
SK-MEL-28 = test system: SK-MEL-28
SF-268 = test system: SF-268
OVCAR-4 = test system: OVCAR-4
MDA-N = test system: MDA-N
NCI/ADR-RES = test system: NCI/ADR-RES
NCI-H23 = test system: NCI-H23
MDA-MB-231 = test system: MDA-MB-231
ACHN = test system: ACHN
OVCAR-5 = test system: OVCAR-5
HCT-15 = test system: HCT-15
SF-295 = test system: SF-295
U-251 = test system: U-251
UO-31 = test system: UO-31
SNB-19 = test system: SNB-19

Cc1ccc(S(=O)(=O)N2CCC(C(=O)O)(c3ccccc3)CC2)cc1
GI50 (A498): > 100 µM (inactive)
GI50 (K562): > 100 µM (inactive)
GI50 (HOP-62): > 100 µM (inactive)
GI50 (NCI-H460): > 100 µM (inactive)
GI50 (KM12): > 100 µM (inactive)
GI50 (SNB-75): > 100 µM (inactive)
GI50 (SK-MEL-28): > 100 µM (inactive)
GI50 (SF-268): > 100 µM (inactive)
GI50 (OVCAR-4): > 100 µM (inactive)
GI50 (MDA-N): > 100 µM (inactive)
GI50 (NCI/ADR-RES): > 100 µM (inactive)
GI50 (NCI-H23): > 100 µM (inactive)
GI50 (MDA-MB-231): > 100 µM (inactive)
GI50 (ACHN): > 100 µM (inactive)
GI50 (OVCAR-5): > 100 µM (inactive)
GI50 (HCT-15): > 100 µM
GI50 (SF-295): > 100 µM (inactive)
GI50 (U-251): > 100 µM (inactive)
GI50 (UO-31): > 100 µM (inactive)
GI50 (SNB-19): > 100 µM (inactive)

C[C@]12CC[C@@H]3c4ccc(O)cc4CC[C@H]3[C@@H]1C/C(=C\c1ccc(C#N)cc1)C2=O
GI50 (A498): > 100 µM (inactive)
GI50 (K562): > 100 µM (inactive)
GI50 (HOP-62): 40.4 µM (inactive)
GI50 (NCI-H460): 36.1 µM (inactive)
GI50 (KM12): 23.1 µM (inactive)
GI50 (SNB-75): 94 µM (inactive)
GI50 (SK-MEL-28): 36.2 µM (inactive)
GI50 (SF-268): 61 µM (inactive)
GI50 (OVCAR-4): 40.5 µM (inactive)
GI50 (MDA-N): 25 µM (inactive)
GI50 (NCI/ADR-RES): 59.3 µM (inactive)
GI50 (NCI-H23): 38.2 µM (inactive)
GI50 (MDA-MB-231): 23.3 µM (inactive)
GI50 (ACHN): 64 µM (inactive)
GI50 (OVCAR-5): 71.8 µM (inactive)
GI50 (HCT-15): 71.8 µM
GI50 (SF-295): 71.6 µM (inactive)
GI50 (U-251): 24.7 µM (inactive)
GI50 (UO-31): 46.9 µM (inactive)
GI50 (SNB-19): 52.4 µM (inactive)

COC(=O)c1cc2ccc(O)c(O)c2cn1
GI50 (A498): > 10 µM (inactive)
GI50 (K562): 2.42 µM (inactive)
GI50 (HOP-62): 20.6 µM (inactive)
GI50 (NCI-H460): 19 µM (inactive)
GI50 (KM12): 18.1 µM (inactive)
GI50 (SNB-75): 21.5 µM (inactive)
GI50 (SK-MEL-28): 20.4 µM (inactive)
GI50 (SF-268): 17.1 µM (inactive)
GI50 (OVCAR-4): 10.1 µM (inactive)
GI50 (MDA-N): 1.52 µM (inactive)
GI50 (NCI/ADR-RES): 7.59 µM (inactive)
GI50 (NCI-H23): 15.7 µM (inactive)
GI50 (MDA-MB-231): 10.9 µM (inactive)
GI50 (ACHN): 19.1 µM (inactive)
GI50 (OVCAR-5): 19.5 µM (inactive)
GI50 (HCT-15): 20.3 µM
GI50 (SF-295): 18.2 µM (inactive)
GI50 (U-251): 8.55 µM (inactive)
GI50 (UO-31): 18.3 µM (inactive)
GI50 (SNB-19): > 10 µM (inactive)

O=[N+]([O-])c1ccc2c(c1)Sc1ccccc1N2
GI50 (A498): 14.1 µM (inactive)
GI50 (K562): 5.41 µM (inactive)
GI50 (HOP-62): 34.1 µM (inactive)
GI50 (NCI-H460): 22.8 µM (inactive)
GI50 (KM12): > 100 µM (inactive)
GI50 (SNB-75): 26.6 µM (inactive)
GI50 (SK-MEL-28): > 100 µM (inactive)
GI50 (SF-268): > 100 µM (inactive)
GI50 (OVCAR-4): > 100 µM (inactive)
GI50 (MDA-N): 6.12 µM (inactive)
GI50 (NCI/ADR-RES): 14.4 µM (inactive)
GI50 (NCI-H23): 7.35 µM (inactive)
GI50 (MDA-MB-231): 46.1 µM (inactive)
GI50 (ACHN): 64.1 µM (inactive)
GI50 (OVCAR-5): > 100 µM (inactive)
GI50 (HCT-15): 27.6 µM
GI50 (SF-295): > 100 µM (inactive)
GI50 (U-251): 67.3 µM (inactive)
GI50 (UO-31): > 100 µM (inactive)
GI50 (SNB-19): 78.2 µM (inactive)

CN(CCCCN1CCCC1)CCCN(C)C(=O)Cc1ccc(Cl)c(Cl)c1
GI50 (A498): 15.8 µM (inactive)
GI50 (K562): 3.05 µM (inactive)
GI50 (HOP-62): 13.9 µM (inactive)
GI50 (NCI-H460): 16.3 µM (inactive)
GI50 (KM12): 12.5 µM (inactive)
GI50 (SNB-75): 20.7 µM (inactive)
GI50 (SK-MEL-28): 1.79 µM (inactive)
GI50 (SF-268): 26.7 µM (inactive)
GI50 (OVCAR-4): 20 µM (inactive)
GI50 (MDA-N): 4.27 µM (inactive)
GI50 (NCI/ADR-RES): > 100 µM (inactive)
GI50 (NCI-H23): 18 µM (inactive)
GI50 (MDA-MB-231): 10.2 µM (inactive)
GI50 (ACHN): 35.7 µM (inactive)
GI50 (OVCAR-5): 29.6 µM (inactive)
GI50 (HCT-15): 27.3 µM
GI50 (SF-295): 19.3 µM (inactive)
GI50 (U-251): 16 µM (inactive)
GI50 (UO-31): 1.95 µM (inactive)
GI50 (SNB-19): 23.7 µM (inactive)

CC1(C)CC[C@]2(C(=O)O)CC[C@]3(C)C(=CC[C@@H]4[C@@]5(C)C[C@H](O)[C@H](O)[C@@](C)(CO)C5=CC[C@]43C)[C@@H]2C1
GI50 (A498): > 100 µM (inactive)
GI50 (K562): 50 µM (inactive)
GI50 (HOP-62): > 100 µM (inactive)
GI50 (NCI-H460): 21.3 µM (inactive)
GI50 (KM12): 21.4 µM (inactive)
GI50 (SNB-75): 32.1 µM (inactive)
GI50 (SK-MEL-28): > 100 µM (inactive)
GI50 (SF-268): 43.1 µM (inactive)
GI50 (OVCAR-4): 31.4 µM (inactive)
GI50 (MDA-N): > 100 µM (inactive)
GI50 (NCI/ADR-RES): 41.1 µM (inactive)
GI50 (NCI-H23): 46.8 µM (inactive)
GI50 (MDA-MB-231): > 100 µM (inactive)
GI50 (ACHN): 34.8 µM (inactive)
GI50 (OVCAR-5): > 100 µM (inactive)
GI50 (HCT-15): 40.7 µM
GI50 (SF-295): 25.8 µM (inactive)
GI50 (U-251): 61.7 µM (inactive)
GI50 (UO-31): 39.3 µM (inactive)
GI50 (SNB-19): 42.7 µM (inactive)

BrCCC[P+](c1ccccc1)(c1ccccc1)c1ccccc1
GI50 (A498): 49.5 µM (inactive)
GI50 (K562): 3.16 µM (inactive)
GI50 (HOP-62): 11.3 µM (inactive)
GI50 (NCI-H460): 15.2 µM (inactive)
GI50 (KM12): 5.06 µM (inactive)
GI50 (SNB-75): 12 µM (inactive)
GI50 (SK-MEL-28): 19 µM (inactive)
GI50 (SF-268): 16.7 µM (inactive)
GI50 (OVCAR-4): 31.3 µM (inactive)
GI50 (MDA-N): 8.2 µM (inactive)
GI50 (NCI/ADR-RES): > 100 µM (inactive)
GI50 (NCI-H23): 12.3 µM (inactive)
GI50 (MDA-MB-231): 8.13 µM (inactive)
GI50 (ACHN): > 100 µM (inactive)
GI50 (OVCAR-5): 56.1 µM (inactive)
GI50 (HCT-15): > 100 µM
GI50 (SF-295): 40.8 µM (inactive)
GI50 (U-251): 6.32 µM (inactive)
GI50 (UO-31): > 100 µM (inactive)
GI50 (SNB-19): 16.6 µM (inactive)

CCOC(=O)c1c(NC(=O)c2cccs2)sc2c1CCCC2
GI50 (A498): 24.3 µM (inactive)
GI50 (K562): > 100 µM (inactive)
GI50 (HOP-62): 21.8 µM (inactive)
GI50 (NCI-H460): > 88.9 µM (inactive)
GI50 (KM12): > 100 µM (inactive)
GI50 (SNB-75): 5.68 µM (inactive)
GI50 (SK-MEL-28): > 100 µM (inactive)
GI50 (SF-268): 28.1 µM (inactive)
GI50 (OVCAR-4): 60.3 µM (inactive)
GI50 (MDA-N): > 100 µM (inactive)
GI50 (NCI/ADR-RES): > 100 µM (inactive)
GI50 (NCI-H23): 48.3 µM (inactive)
GI50 (MDA-MB-231): 24.6 µM (inactive)
GI50 (ACHN): > 68.1 µM (inactive)
GI50 (OVCAR-5): 35 µM (inactive)
GI50 (HCT-15): > 100 µM
GI50 (SF-295): 27.3 µM (inactive)
GI50 (U-251): 28.1 µM (inactive)
GI50 (UO-31): > 63.1 µM (inactive)
GI50 (SNB-19): 30.1 µM (inactive)

Cc1ccc(-c2cc(C(F)(F)F)nn2-c2ccc(S(N)(=O)=O)cc2)cc1 [CELECOXIB]
GI50 (A498): 15.1 µM (inactive)
GI50 (K562): 10.1 µM (inactive)
GI50 (HOP-62): 67.9 µM (inactive)
GI50 (NCI-H460): 15.8 µM (inactive)
GI50 (KM12): 15.1 µM (inactive)
GI50 (SNB-75): 15.6 µM (inactive)
GI50 (SK-MEL-28): 17.6 µM (inactive)
GI50 (SF-268): 16.9 µM (inactive)
GI50 (OVCAR-4): 12.4 µM (inactive)
GI50 (MDA-N): 17.1 µM (inactive)
GI50 (NCI/ADR-RES): 16.2 µM (inactive)
GI50 (NCI-H23): 17.1 µM (inactive)
GI50 (MDA-MB-231): 15.6 µM (inactive)
GI50 (ACHN): 17.5 µM (inactive)
GI50 (OVCAR-5): 19.7 µM (inactive)
GI50 (HCT-15): 15.9 µM
GI50 (SF-295): 16.6 µM (inactive)
GI50 (U-251): 16.1 µM (inactive)
GI50 (UO-31): 14.8 µM (inactive)
GI50 (SNB-19): 18 µM (inactive)

CC[C@@H]1C(=O)OC[C@@H]1Cc1cncn1C [PILOCARPINE HYDROCHLORIDE]
GI50 (A498): > 100 µM (inactive)
GI50 (K562): > 100 µM (inactive)
GI50 (HOP-62): > 100 µM (inactive)
GI50 (NCI-H460): > 100 µM (inactive)
GI50 (KM12): > 100 µM (inactive)
GI50 (SNB-75): > 100 µM (inactive)
GI50 (SK-MEL-28): > 100 µM (inactive)
GI50 (SF-268): > 100 µM (inactive)
GI50 (OVCAR-4): > 100 µM (inactive)
GI50 (MDA-N): > 100 µM (inactive)
GI50 (NCI/ADR-RES): > 100 µM (inactive)
GI50 (NCI-H23): > 100 µM (inactive)
GI50 (MDA-MB-231): > 100 µM (inactive)
GI50 (ACHN): > 100 µM (inactive)
GI50 (OVCAR-5): > 100 µM (inactive)
GI50 (HCT-15): > 100 µM
GI50 (SF-295): > 100 µM (inactive)
GI50 (U-251): > 100 µM (inactive)
GI50 (UO-31): > 100 µM (inactive)
GI50 (SNB-19): > 100 µM (inactive)
